Series [1] in a line: t1/2 of liver particle metabolism, rat. The series is classed as in vitro ADME. To be noted: liver particle (liver microsomes).
Series [2] is described as follows: t1/2 of liver particle metabolism, mice. To be noted: mouse, liver particle (liver microsomes). The series is classed as in vitro ADME.
Series [3] in a line: t1/2 of liver particle metabolism, human. The series is classed as in vitro ADME. To be noted: liver particle (liver microsomes). On the technique in general: Microsomes from liver hold many membrane-bound enzymes, among them those of drug oxidation.
For series [4], the system named is human liver cancer MHCC97H cell xenograft. The series can be described thus: Pharmacodynamics assay of MHCC97H liver cancer cell subcutaneous xenograft tumor model. The class given is in vivo, BALB/c nude mice. To be noted: for Tumor volume (24th day): 24th day after administration, average ± SEM; for T/C / TGI: based on 24th day tumor volume. As to the method: Assay 3: Pharmacodynamics Assay of MHCC97H Liver Cancer Cell Subcutaneous Xanograft Tumor Model
MHCC97H cells were cultured in a single layer in-vitro. The culturing condition was RPMI1640 medium supplemented with 10% heat-inactivated fetal bovine serum, 1% penicillin-streptomycin double antibody under 37° C., 5% carbon dioxide. Digestion and passage treatment with trypsin-EDTA was done twice a week. When the cells are in the exponential growing phase, the cells were collected, counted and inoculated.
BALB/c nude mice, male. 6-8 weeks old, weighting 18-22 g.
0.2 mL of a cell suspension containing 5×10^6 MHCC97H was subcutaneously inoculated into the right back of each mouse. Drugs were administrated by group after the average tumor volume reached approximately 172 mm^3.
Aim of the assay: investigation of whether the tumor growth was inhibited, delayed or cured. The diameters of the tumor was measured twice a week using vernier calipers. The formula for calculating the tumor volume is V=0.5a×b2, and a and b represent the long and short diameters of the tumor respectively. The antitumor effect (TGI) of the compounds was evaluated by T-C (days) and T/C (%).

Series [5] addresses T1, c-MET enzyme (Homo sapiens, UniProt P08581).
T1 construct: His (6xHis); purchased invitrogen PV3143
The series can be described thus: Binding activity of c-MET enzyme assay (LanthaScreen Eu Kinase Binding Assay). To be noted: cMET 5 nM, Tracer 236 30 nM, 60 mins at 4° C. How it is done: Assay 1: Binding Activity of c-MET Enzyme Assay
(§1) Reagents and Consumables:
Eu-Anti-His AB (MAb Anti 6HIS-K)
The binding of tracer agent and antibody and kinase leaded to high FRET standard, while using kinase inhibitor instead of tracer agent would lead to loss of FRET.
1) The antibody Eu-Anti-His AB, enzyme cMET, tracer agent Tracer236 were diluted.
Double duplicate wells were set and each of them 75 nL.
A general note: In TR-FRET formats the signal depends on donor and acceptor labels being close together.

The subject of series [6] is MHCC97H cells. The experiment in a line: Inhibitory effect assay on proliferation (CellTiter-Glo). The class given is cell-based. To be noted: Homo sapiens, 72 h, MHCC97-H, 3 days incubation, read-out: MHCC97H cell IC50.
Description: Assay 2: Inhibitory Effect Assay on Proliferation
as §1
1) Cell culture: DMEM cell medium, fetal bovine serum, DPBS
3) Detection reagent: live cell detection kit CellTiter-Glo
4) Other major consumables and reagents: compound dilution plate, intermediate plate, test plate, DMSO
The amount of ATP directly reflects the number of cells and the state of the cells, thus the number of living cells could be directly detected by quantitatively measuring ATP. The live cell assay kit contains luciferase and its substrate. With the presence of ATP, a stable optical signal would be emitted by the luciferase catalyzed substrate. Thus the amount of ATP in the cell could be determined by detecting the intensity of the signal. The light signal was proportional to the amount of ATP in the cell, while the ATP was positively correlated with the number of living cells, so that the proliferation in the cell could be detected. The assay plate used was analyzed by Envision from PE Corporation.
1. Preparation of the Cell Plates
MHCC97-H cells were seeded separately into 384-well plates, each of the well contains 500 cells. The cell plates were placed and incubated in a carbon dioxide incubator overnight.
2. Preparation of the compound.
Echo was used for 4-time dilution and 9 concentration was prepared, ready for double duplicate wells assay.
3. Compound Treatment of Cells
The compounds were transferred to cell plates at a starting concentration of 10 μM. The cell plates were incubated in a carbon dioxide incubator for 3 days.
The […] reagent was added into the cell plates and the plate was incubated at room temperature for 10 mins to stabilize the luminescence signal. PerkinElmer Envision multi-label analyzer was used for readings.

The test system of series [7] is MHCC97H cell. To be noted: read-out: MHCC97H cell IC50; prior art section; cited from earlier work.
The conditions of series [8]: in words, prior art section; cited from earlier work.

T1 sequence (P08581 956-1390 limits assumed): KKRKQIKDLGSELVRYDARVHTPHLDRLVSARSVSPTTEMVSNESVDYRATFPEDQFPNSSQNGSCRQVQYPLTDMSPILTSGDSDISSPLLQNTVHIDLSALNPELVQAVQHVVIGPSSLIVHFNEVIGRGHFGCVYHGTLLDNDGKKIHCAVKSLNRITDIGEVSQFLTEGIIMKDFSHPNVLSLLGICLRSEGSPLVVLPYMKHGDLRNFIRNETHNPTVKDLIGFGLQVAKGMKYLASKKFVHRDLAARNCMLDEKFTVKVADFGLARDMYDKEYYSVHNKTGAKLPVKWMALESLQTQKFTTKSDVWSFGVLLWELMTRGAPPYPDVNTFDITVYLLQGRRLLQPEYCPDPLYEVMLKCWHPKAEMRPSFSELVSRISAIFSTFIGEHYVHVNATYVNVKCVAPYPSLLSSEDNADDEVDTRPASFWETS

As to `CC(c1cccc(-c2ncc(OCC3CCN(C)CC3)cn2)c1)n1cc(-c2cc(C#N)ccn2)cc(F)c1=O` (single isomer, unassigned) [Embodiment 1-2], the half-life in series [1] worked out at 36.5 min; in series [2] it was 49.1 min; in series [3], 62.1 min. The “Tumor volume (24th day)” value in series [4] is 153 ± 12 mm^3. This molecule gave a T/C in series [4] of 7.4%. The TGI in series [4] is 101.0%.
`Cc1cc(-c2cc(F)c(=O)n([C@H](C)c3cccc(-c4ncc(OCC5CCN(C)CC5)cn4)c3)c2)on1` (single isomer, unassigned) [Embodiment 8-2] had a half-inhibitory concentration (IC50) in series [5] of 3.79 nM. In series [4], the “Tumor volume (24th day)” value stood at 161 ± 6 mm^3, the T/C is listed as 7.8% and the TGI turned out to be 100.6%.
With `Cc1cc(-c2cc(F)c(=O)n(C(C)c3cccc(-c4ncc(OCC5CCN(C)CC5)cn4)c3)c2)sn1` (centres unmarked) [Embodiment 2-2], the IC50 in series [5] was determined as 9.33 nM; in series [6], 13.8 nM.
`Cc1cc(-c2ccc(=O)n([C@H](C)c3cccc(-c4ncc(OCC5CCN(C)CC5)cn4)c3)c2)sn1` [Embodiment 3-2]: the half-inhibitory concentration (IC50) in series [6] worked out at 19 nM.
Turning to `CN1CCC(COc2cnc(-c3cccc(Cn4cc(-c5cc(C#N)ccc5F)ccc4=O)c3)nc2)CC1` [Embodiment 4], the IC50 in series [5] is 6.16 nM; in series [6] it was 72.9 nM.
For `Cc1cc(-c2cc(F)c(=O)n(Cc3cccc(-c4ncc(OCC5CCN(C)CC5)cn4)c3)c2)sn1` [Embodiment 5] the same measures were 2.9 nM and 58.8 nM.
For `CN1CCC(COc2cnc(-c3cccc(Cn4cc(-c5cc(C#N)ccn5)ccc4=O)c3)nc2)CC1` [Embodiment 6] the same measures were 4.37 nM and 32.9 nM.
`CN1CCC(COc2cnc(-c3cccc(Cn4cc(-c5cc(C#N)ccn5)cc(F)c4=O)c3)nc2)CC1` [Embodiment 7]: the half-inhibitory concentration (IC50) was determined as 15.5 nM in series [5] and 22.3 nM in series [6].
The corresponding values for `CN1CCC(COc2cnc(-c3cccc(Cn4cc(-c5cnn(C)c5)ccc4=O)c3)nc2)CC1` [Embodiment 10] are 69.5 nM and 166 nM.
For `Cc1cc(-c2ccc(=O)n(Cc3cccc(-c4ncc(OCC5CCN(C)CC5)cn4)c3)c2)sn1` [Embodiment 11] the same measures were 5 nM and 93.8 nM.
For `Cc1cc(-c2ccc(=O)n(Cc3cccc(-c4ncc(OCC5CCN(C)CC5)cn4)c3)c2)on1` [Embodiment 12], the IC50 in series [6] worked out at 51.4 nM.
As to `CN1CCC(COc2cnc(-c3cccc(Cn4nc(-c5cccc(C#N)c5)ccc4=O)c3)nc2)CC1` [Tepotinib, reference compound], the IC50 in series [7] was 6.2 nM. In addition, in series [8], the “clearance rate in vivo” value was “high clearance rate in vivo” and the metabolic stability entry is “low metabolic stability”. In series [4], the “Tumor volume (24th day)” value is given as 255 ± 5 mm^3, the T/C came to 12.4% and the TGI is 95.6%.

What is called half-life is the time in which the quantity being followed falls by half. A high value points to slow loss. In general, T/C refers to the result in the treated group divided by that in the control group, in per cent. Usually IC50 stands for the point on the concentration scale where inhibition reaches its midpoint.

The record behind these values is patent publication US10501443B2, “Pyridone compound as c-met inhibitor” (FUJIAN COSUNTER PHARMACEUTICAL CO., LTD., priority 2016, dated 2019).
